Test results as given in ChEMBL document CHEMBL1151839, “Phosphorothioate analogs of m7GTP are enzymatically stable inhibitors of cap-dependent translation” (Bioorg Med Chem Lett, 2009).

How the values were obtained:
[1] = target: Eukaryotic translation initiation factor 4E (Mus musculus) (UniProt P63073)
Description: Binding affinity to mouse eukaryotic initiation factor 4E expressed in Escherichia coli BL21(DE3) by fluorescence quenching titration method

[2] = Stability in presence of human DcpS assessed as complete degradation at 40 uM by HPLC-based assay; format: ADME
[3] = target: T1, Eukaryotic translation initiation factor 4E (Oryctolagus cuniculus, UniProt P29338); assay: Inhibition of eukaryotic initiation factor 4E in micrococcal nuclease-pretreated rabbit reticulocyte lysate assessed as inhibition of m7,3'-O-GpppG-capped 5'UTRbetaglob-LUC mRNA translation treated 60 mins before mRNA addition by luciferase-based luminometry
T1 sequence (P29338 whole entry): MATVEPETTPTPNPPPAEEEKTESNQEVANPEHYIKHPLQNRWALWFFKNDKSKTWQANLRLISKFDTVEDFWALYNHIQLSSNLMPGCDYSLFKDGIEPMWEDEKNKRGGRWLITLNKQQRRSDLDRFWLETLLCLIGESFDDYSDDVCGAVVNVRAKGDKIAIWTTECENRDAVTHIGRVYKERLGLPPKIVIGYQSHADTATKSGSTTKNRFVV

[4] = target: T1, Eukaryotic translation initiation factor 4E; assay: Inhibition of eukaryotic initiation factor 4E in micrococcal nuclease-pretreated rabbit reticulocyte lysate assessed as inhibition of m7,3'-O-GpppG-capped 5'UTRbetaglob-LUC mRNA translation by luciferase-based luminometry
[5] = target: T1, Eukaryotic translation initiation factor 4E; assay: Inhibition of eukaryotic initiation factor 4E in micrococcal nuclease-pretreated rabbit reticulocyte lysate assessed as inhibition of rabbit beta-[…] mRNA translation by [3H]leucine incorporation assay

Chain of Eukaryotic translation initiation factor 4E (Mus musculus) (P63073 whole entry): as the sequence (P29338 whole entry) above, with P12T counted along it

For C[n+]1cn([C@@H]2O[C@H](COP(=O)(O)OP(=O)([O-])OP(=O)(O)OC[C@H]3O[C@@H](n4cnc5c(=O)[nH]c(N)nc54)[C@H](O)[C@@H]3O)[C@@H](O)[C@H]2O)c2nc(N)nc(O)c21, the Ka [1] was 9.4 µM⁻¹.
With C[n+]1cn([C@@H]2O[C@H](COP(=O)([O-])OP(=O)(O)OP(=O)(O)O)[C@@H](O)[C@H]2O)c2nc(N)[nH]c(=O)c21 the Stability [2] was “Unstable”.
With C[n+]1cn([C@@H]2O[C@H](CO[P@](=O)(S)OP(=O)([O-])OP(=O)(O)O)[C@@H](O)[C@H]2O)c2nc(N)nc(O)c21 the IC50 [3] was 0.56 µM, the Stability [2] was “Stable” and the Ka [1] was 371 µM⁻¹. The IC50 [4] was 0.56 µM.
With C[n+]1cn([C@@H]2O[C@H](COP(=O)(O)OP(=O)([O-])OP(=O)(O)OC[C@H]3O[C@@H](n4cnc5c(=O)[nH]c(N)nc54)[C@H](O)[C@@H]3O)[C@@H](O)[C@H]2O)c2nc(N)[nH]c(=O)c21 the IC50 [3] was < 20 µM, the Stability [2] was “Unstable” and the IC50 [4] was 8.3 µM. For the same compound, the IC50 [5] was 17.1 µM.
For C[n+]1cn([C@@H]2O[C@H](CO[P@](=O)(S)OP(=O)(O)OP(=O)(O)OC[C@H]3O[C@@H](n4cnc5c(=O)[nH]c(N)nc54)[C@H](O)[C@@H]3O)[C@@H](O)[C@H]2O)c2nc(N)[n-]c(=O)c21, the IC50 [3] was 1.2 µM, the Stability [2] was “Stable” and the IC50 [4] was 1.1 µM. It also gave an IC50 [5] of 4.1 µM.
Work on C[n+]1cn([C@@H]2O[C@H](CO[P@@](=O)(S)OP(=O)(O)OP(=O)([O-])O)[C@@H](O)[C@H]2O)c2c1C(O)NC(N)=N2 (stereo not given in full) yielded a Ka [1] of 190 µM⁻¹.
In the case of C[n+]1cn([C@@H]2O[C@H](CO[P@@](=O)(S)OP(=O)([O-])OP(=O)(O)OC[C@H]3O[C@@H](n4cnc5c(=O)[nH]c(N)nc54)[C@H](O)[C@@H]3O)[C@@H](O)[C@H]2O)c2nc(N)nc(O)c21, the IC50 [3] is reported as 2.1 µM, the Stability [2] is reported as “Stable” and the Ka [1] is reported as 10 µM⁻¹. For the same compound, the IC50 [4] was 3.8 µM and the IC50 [5] was 12.1 µM.
